For 16 molecules, IC50 results are on record in patent publication US5814636A, “Compounds with platelet aggregation inhibitor activity” (Meiji Seika Kabushiki Kaisha, priority 1994, dated 1998).

Structures can show the parent of a compound that is named as a salt.

The experiment has as its system human PRP (platelet rich plasma). Nature of the experiment: Inhibition of platelet aggregation (human PRP, ADP-induced). In kind it is cell-based. As to conditions: ADP 5 μM final as inducer, compound and PRP preincubated 2 minutes. From the text: The structures of compounds obtained in Examples are as follows. The numbers of the compounds correspond to those of the examples. [drawing 11] Pharmacological test: Inhibition of platelet aggregation
The effect of the compound according to the present invention on inhibiting the platelet aggregation was examined with human PRP (platelet rich plasma).
Nine volumes of a blood sample was taken out of the vein of a normal human with a syringe in which one volume of a 3.8% sodium citrate solution was charged. The blood sample was centrifuged at 170×g at room temperature for 10 minutes. The supernatant thus obtained was isolated as PRP. The residual blood sample that PRP had been taken out was centrifuged at 2,700×g for 15 minutes. The supernatant was then taken as platelet poor plasma (PPP).
Platelet aggregation test was conducted with an aggligometer (PAM-8C; manufactured by MEBANICKS Co., Ltd.). Compounds to be tested were dissolved in a 50% DMSO saline, a 50% methanol saline or physiological saline. The compound and PRP were preincubated for 2 minutes. The ADP (CHRONO-PAR REAGENTS 384 ADP, CHRONO-LOG Corp.) was used as an inducer in the form of a dilution with saline so that the final concentration is 5 μM.
Anti-platelet aggregation activity was obtained as an inhibition rate to platelet aggregation effect of ADP in the absence of a compound to be tested as follows: [formula]
`O=C(O)COc1ccc(C(=O)CN2CCN(C3CCNCC3)CC2=O)cc1OCC(=O)O` [Example 1, [[4-[[4-(piperidin-4-yl)-2-oxopiperazin-1-yl]acetyl]-o-phenylene]dioxy]diacetic acid trifluoroacetate] gave an IC50 of 55 nM.
With `O=C(O)COC1CCN(C(=O)CN2CCN(C3CCNCC3)CC2=O)CC1` [Example 2, [[1-[4-(piperidin-4-yl)-2-oxopiperazin-1-yl]acetyl]piperidin-4-yl]oxyaceticacid trifluoroacetate] the figure was 80 nM; with `O=C(O)COc1ccc(C(=O)CN2CCN(C3CCNCC3)CC2)cc1OCC(=O)O` [Example 3, [[4-[4-(piperidin-4-yl)piperazin-1-yl]acetyl]-o-phenylene]dioxy]diacetic acid trifluoroacetate], 150 nM.
`CCOC(=O)COc1ccc(C(=O)CN2CCN(C3CCNCC3)CC2=O)cc1OCC(=O)OCC` [Example 4] came in with an IC50 of 560 nM.
With `O=C(O)COc1ccc(C(=O)CN2CCN(C3CCNCC3)CC2=O)cc1` [Example 5] the figure was 32 nM.
For the molecule `O=C(O)COC1CCN(C(=O)CN2CCC(N3CCNCC3)CC2)CC1` [Example 6, [[1-[4-(piperazin-4-yl)piperidin-1-yl]acetyl]piperidin-4-yl]oxyacetic acid trifluoroacetate], the half-inhibitory concentration (IC50) is 2300 nM. This IC50 lies about 72-fold higher than the previous one.
As to `CCCCOC(=O)COc1ccc(C(=O)CN2C(=O)CN(C3CCNCC3)CC2=O)cc1` [Example 7, n-butyl 4-[[4-(piperidin-4-yl)-2,6-dioxopiperazin-1-yl]acetyl]phenoxyacetate hydro chloride], the 50% inhibitory concentration (IC50) amounted to 240 nM.
Then `O=C(O)COc1ccc(C(=O)CN2C(=O)CN(C3CCNCC3)CC2=O)cc1` [Example 8, 4-[[4-(piperidin-4-yl)-2,6-dioxopiperazin-1-yl]acetyl]phenoxyacetic acid hydrochloride], with 19 nM; and `CCCCOC(=O)COc1ccc(C(=O)CN2CCN(C3CCNCC3)C(=O)C2=O)cc1` [Example 9, n-butyl 4-[[4-(piperidin-4-yl)-2,3-dioxopiperazin-1-yl]acetyl]phenoxyacetate hydro chloride], with 1200 nM; and `O=C(O)COc1ccc(C(=O)CN2CCN(C3CCNCC3)C(=O)C2=O)cc1` [Example 10, 4-[[4-(piperidin-4-yl)-2,3-dioxopiperazin-1-yl]acetyl]phenoxyacetic acid.hydrochloride], with 470 nM.
With `CCCCOC(=O)COc1ccc(C(=O)CN2CC(=O)N(C3CCNCC3)CC2=O)cc1` [Example 11], 1100 nM corresponded to half-maximal inhibition (IC50).
Then `O=C(O)COc1ccc(C(=O)CN2CC(=O)N(C3CCNCC3)CC2=O)cc1` [Example 12, 4-[[4-(piperidin-4-yl)-2,5-dioxopiperazin-1-yl]acetyl]phenoxyacetic acid hydrochloride], with 1200 nM; and `CCCCOC(=O)COc1ccc(C(=O)CN2CCN(C3CCNCC3)CC2=O)cc1` [Example 13, n-butyl 4-[[4-(piperidin-4-yl)-2-oxopiperazin-1-yl]acetyl]phenoxyacetate dihydrochloride], with 49 nM.
On to `CCOC(=O)COc1ccc(C(=O)CN2CCN(C3CCNCC3)CC2=O)cc1` [Example 14, ethyl 4-[[4-(piperidin-4-yl)-2-oxopiperazin-1-yl]acetyl]phenoxyacetate], for which inhibition was half-maximal at 250 nM (IC50).
The molecule `CCOC(=O)COc1ccc(C(=O)CN2CCN(C3CCN(Cc4oc(=O)oc4C)CC3)CC2=O)cc1` [Example 15, ethyl 4-[[4-[1-(5-methyl-2-oxodioxol-4-yl)methylpiperidin-4-yl]-2-oxopiperazin-1-yl]acetyl]phenoxyacetate] came in with a concentration for half-maximal inhibition (IC50) of 300 nM.
Then `O=C(O)CCc1ccc(C(=O)CN2CCN(C3CCNCC3)CC2=O)cc1` [Example 16, 3-[4-[[4-(piperidin-4-yl)-2-oxopiperazin-1-yl]acetyl]phenyl]propionic acid trifluoroacetate], with 420 nM.

As a reminder, the IC50 is the concentration that gives 50% inhibition.
